Experiments:
[1] = system: AMPA; assay: Cortical wedge model (electrophysiology, rat cortical wedge preparation), AMPA subtype; assay type: cell-based; details: receptor subtype AMPA; for EC50: agonist; for Ki: starred in IC50 column (*) = Ki value)
Method: (§1) The Cortical wedge model is a test in which slices of rat brain is examined in vitro in order to quantify the effect of ligands at the Glu-receptors and evaluate the pharmacological profile of the ligands (i.e. agonist/antagonist properties). The test was performed as described by Harrison, N.L. and Simmonds, M.A. Br.J. Pharmacol. 1985, 84, 381-391 as modified according to Wheatley, P.L. Br.J.Pharmacol. 1986, 87, 159P.

[2] = biological target: NMDA-receptor; assay: [3H]CPP binding (displacement of [3H]CPP from the transmitter binding site)
[3] = biological target: AMPA receptors; assay: [3H]AMPA binding (displacement of [3H]AMPA, in the presence of KSCN); details: only high affinity binding sites labelled
Method: In this test the affinity of a drug for AMPA receptors is determined by measuring the ability to displace [^3H]AMPA from AMPA receptors.
The test was carried out in accordance with a modified version of the method of Honoré, T. and Nielsen, M., Neurosci.Lett. 1985, 54, 27-32. The test was carried out in the presence of KSCN. This means that only the [^3H]AMPA high affinity binding sites were labelled.
The membrane preparations used were obtained in accordance with the method of Ransom, R.W. and Stec, J.Neurochem. 1988, 51, 830-836.

[4] = system: NMDA; assay: Cortical wedge model (electrophysiology, rat cortical wedge preparation), NMDA subtype; assay type: cell-based; details: receptor subtype NMDA; for IC50: antagonist; for EC50: agonist
Method: as §1

[5] = system: KAIN; assay: Cortical wedge model (electrophysiology, rat cortical wedge preparation), KAIN subtype; assay type: cell-based; details: receptor subtype KAIN
Method: as §1

Row | SMILES | EC50 [1] [µM] | IC50 [2] [µM] | IC50 [3] [µM] | Profile [1] | Profile [4] | other results
1 | NC(Cc1c(O)noc1-c1cccs1)C(=O)O (single isomer, unassigned; (-)) [Compound 15a, (-)-2-Amino-3-[3-hydroxy-5-(2-thienyl)isoxazol-4-yl]propionic Acid] | – | – | – | Antagonist | – | IC50 ([1]; antagonist): 300 µM
2 | NC(CCCc1c(O)noc1-c1ccccc1)C(=O)O (racemic) [Compound 3a, (RS)-2-Amino-5-(3-hydroxy-5-phenylisoxazol-4-yl)pentanoic Acid] | 240 | 21 | 9 | Agonist | – | –
3 | Nc1c(NCc2c(O)noc2-c2ccsc2)c(=O)c1=O [Compound 5c, 4-[(2-Amino-3,4-dioxo-1-cyclobuten-1-yl)aminomethyl]-3-hydroxy-5-(3-thienyl)isoxazole] | – | – | – | Antagonist | Antagonist | –
4 | NC(Cc1c(O)noc1-c1ccsc1)C(=O)O (racemic) [Compound 1b, (RS)-2-Amino-3-[3-hydroxy-5-(3-thienyl)isoxazol-4-yl]propionic Acid] | 43 | > 100 | 3.5 | Agonist | – | –
5 | NC(Cc1c(O)noc1-c1cccs1)C(=O)O (racemic) [Compound 1a, (RS)-2-Amino-3-[3-hydroxy-5-(2-thienyl)isoxazol-4-yl]propionic Acid] | 5.8 | > 100 | 0.28 | Agonist | – | –
6 | NC(CCc1c(O)noc1-c1ccccc1)C(=O)O (racemic) [Compound 4b, (RS)-2-Amino-4-(3-hydroxy-5-phenylisoxazol-4-yl)butanoic Acid] | – | 2.5 | > 100 | – | Antagonist | IC50 [4]: 18 µM
7 | Cc1ccc(-c2onc(O)c2CC(N)C(=O)O)s1 (racemic) [Compound 1f, (RS)-2-Amino-3-[3-hydroxy-5-(5-methyl-2-thienyl)isoxazol-4-yl]propionic Acid] | 130 | – | – | Agonist | – | –
8 | NC(Cc1c(O)noc1-c1ccc(F)cc1)C(=O)O (single isomer, unassigned; (-)) [Compound 14c, (-)-2-Amino-3-[5-(4-fluorophenyl)-3-hydroxyisoxazol-4-yl]propionic Acid] | – | – | – | Antagonist | – | Ki [1]: 337 µM
9 | NC(CCc1c(O)noc1-c1ccc(F)cc1)C(=O)O (racemic) [Compound 4a, (RS)-2-Amino-4-[5-(4-fluorophenyl)-3-hydroxyisoxazol-4-yl]butanoic Acid] | – | 0.76 | > 100 | – | Antagonist | IC50 [4]: 9 µM
10 | NC(CCc1c(O)noc1-c1cccs1)C(=O)O (racemic) [Compound 4c, (RS)-2-Amino-4-[3-hydroxy-5-(2-thienyl)isoxazol-4-yl]butanoic Acid] | – | 0.19 | > 100 | – | Antagonist | IC50 [4]: 2.5 µM
11 | NC(C(=O)O)c1c(O)noc1-c1ccccc1 (racemic) [Compound 2a, (RS)-2-Amino-2-(3-hydroxy-5-phenylisoxazol-4-yl)acetic Acid] | – | 7.5 | 43 | – | Part. Ago.# | EC50 [4]: 300 µM
12 | Nc1c(NCc2c(O)noc2-c2ccccc2)c(=O)c1=O [Compound 5a, 4-[(2-Amino-3,4-dioxo-1-cyclobuten-1-yl)aminomethyl]-3-hydroxy-5-phenylisoxazole] | – | 22 | 33 | Antagonist | Antagonist | Profile [5]: Antagonist
13 | Nc1c(NCc2c(O)noc2-c2cccs2)c(=O)c1=O [Compound 5b, 4-[(2-Amino-3,4-dioxo-1-cyclobuten-1-yl)aminomethyl]-3-hydroxy-5-(2-thienyl)isoxazole] | – | 6.9 | 38 | – | Antagonist | IC50 [4]: 30 µM
14 | NC(CCc1c(O)noc1-c1ccsc1)C(=O)O (racemic) [Compound 4d, (RS)-2-Amino-4-[3-hydroxy-5-(3-thienyl)isoxazol-4-yl]butanoic Acid] | – | 0.7 | > 100 | – | Antagonist | IC50 [4]: 8.6 µM
15 | NC(C(=O)O)c1c(O)noc1-c1cccs1 (racemic) [Compound 2b, (RS)-2-Amino-2-[3-hydroxy-5-(2-thienyl)isoxazol-4-yl]acetic Acid] | – | – | – | – | Agonist | EC50 [4]: 30 µM
16 | N[C@H](Cc1c(O)noc1-c1ccccc1)C(=O)O [Compound 14b, (R)-(-)-2-Amino-3-(3-hydroxy-5-phenylisoxazol-4-yl)propionic acid] | – | – | – | Antagonist | – | Profile [5]: Antagonist; Ki ([5]; starred in IC50 column (*) = Ki value)): 950 µM; Ki [1]: 290 µM

The next lines start with results.

Row | EC50 [1] [µM] | IC50 [2] [µM] | IC50 [3] [µM] | SMILES | Profile [1] | Profile [4] | other results
17 | 170 | – | – | NC(Cc1c(O)noc1-c1ccc(F)cc1)C(=O)O (single isomer, unassigned; (+)) [Compound 14d, (+)-2-Amino-3-[5-(4-fluorophenyl)-3-hydroxyisoxazol-4-yl]propionic Acid] | Agonist | – | –
18 | 230 | – | 5.5 | N[C@@H](Cc1c(O)noc1-c1ccccc1)C(=O)O [Compound 14a, (S)-(+)-2-Amino-3-(3-hydroxy-5-phenylisoxazol-4-yl)propionic acid] | Agonist | – | –
19 | 2.7 | – | – | NC(Cc1c(O)noc1-c1cccs1)C(=O)O (single isomer, unassigned; (+)) [Compound 15b, (+)-2-Amino-3-[3-hydroxy-5-(2-thienyl)isoxazol-4-yl]propionic acid] | Agonist | – | –
20 | 55 | – | – | NC(Cc1c(O)noc1-c1ccccn1)C(=O)O (racemic) [Compound 13a, (RS)-2-Amino-3-[3-hydroxy-5-(2-pyridyl)isoxazol-4-yl)propionic Acid] | Agonist | – | –
21 | 7.4 | – | – | NC(Cc1c(O)noc1-c1ccncc1)C(=O)O (racemic) [Compound 13b, (RS)-2-Amino-3-[3-hydroxy-5-(4-pyridyl)isoxazol-4-yl]propionic Acid] | Agonist | – | –

From patent publication EP0994107A1, “5-Arylisoxazol-4-yl-substituted 2-amino carboxylic acid compounds” (H. LUNDBECK A/S, priority 1993, dated 1995)
